Patent US20260240810A1, “COMPOSITIONS AND METHODS FOR REDUCING ADVERSE SIDE EFFECTS IN CANCER TREATMENT” (priority 2022, published 2026)

Test: Pharmacokinetics, RRx-001-GSH in plasma as surrogate for drug exposure
Assay type: in vivo
Protocol: RRx-001 reacted nonenzymatically and covalently with reduced glutathione (GSH), and with the β93Cys residue of hemoglobin, forming RRx-001-GSH and RRx-001-hemoglobin metabolites, respectively. Given the rapid conversion of the RRx-001 parent molecule to GSH and hemoglobin conjugates, RRx-001-GSH, being the predominant measurable metabolite in the plasma, was chosen as a surrogate for drug exposure. Terminal half-life of RRx-001-GSH was calculated as approximately 30 minutes.

Q: Which “area under the plasma concentration-time curve and maximum plasma concentration, dose proportionality” value (doses up to 55 mg/m^2 in phase 1) does the source give for `NC(CCC(=O)NC(CSCC(=O)N1CC([N+](=O)[O-])([N+](=O)[O-])C1)C(=O)NCC(=O)O)C(=O)O` (centres unmarked) [RRx-001-GSH] here?
A: Its value is “mostly dosed proportional”.

Q: What about the “Terminal half-life of RRx-001-GSH” value (plasma) of the same molecule?
A: Its value is “approximately 30 minutes”.
